Results as given in patent US20050123583A1, “Medical use of reuterin” (priority 2000, published 2005).

Key:
[1] = test system: 3T3 fibroblasts (BALB/3T3 C1A31-1-1); assay: Cytotoxicity, MTT assay; format: cell-based, mouse; conditions: 24 hours of culture
Procedure: (§1) The cytotoxicity of reuterin was also studied (J Biomed Mater Res 2002;61:360-369) and disclosed in the present invention, wherein glutaraldehyde is again used as a control. The cytotoxicity of the test reagents (glutaraldehyde vs. reuterin) was evaluated in vitro using a mouse-derived established cell line of 3T3 fibroblasts (BALB/3T3 C1A31-1-1). The assay (light microscopic observation and MTT assay) was used to measure the proportion of viable cells following a test reagent-treated culture.
In the assay, 3T3 fibroblasts were seeded in 24-well plates at 5×10^4 cells/well in 1 ml Dulbecco's modified eagle medium (DMEM, Gibco 430-2800EG, Grand Island, N.Y., USA) with 10% fetal calf serum (FCS, Hyclone Laboratories, Logan, Ut., USA). […] Subsequently, the cells were washed with phosphate buffered saline (PBS) twice and surviving cell numbers were then determined indirectly by 3-(4,5-dimethylthiazol-yl)-2,5-diphenyltetrazolium bromide (MTT, Sigma Chemical Co., St. Louis, Mo., USA) dye reduction.
The MTT assay is based on the reduction of MTT, a yellow soluble dye by the mitochondrial succinate dehydrogenase to form an insoluble dark blue formazan product. […] Optical density readings were then performed using a multiwell scanning spectrophotometer (MRX Microplate Reader, Dynatech Laboratories Inc., Chantilly, Va., USA) at a wavelength of 570 nm. […]

[2] = test system: 3T3 fibroblasts (BALB/3T3 C1A31-1-1); assay: Cytotoxicity, light microscopic observation of cultured cells; format: cell-based; conditions: 24 hours of culture
Procedure: as §1
In the assay, 3T3 fibroblasts were seeded in 24-well plates at 5×10^4 cells/well in 1 ml Dulbecco's modified eagle medium (DMEM, Gibco 430-2800EG, Grand Island, N.Y., USA) with 10% fetal calf serum (FCS, Hyclone Laboratories, Logan, Ut., USA). The cell culture was maintained in a humidified incubator at 37° C. with 10% CO2 in air. Cells in log phase of growth were then exposed to a new DMEM medium drugged with varying concentrations of glutaraldehyde or reuterin. After 24 hours of culture, the growth media in the wells were removed and the cells were photographed using light microscopy. Subsequently, the cells were washed with phosphate buffered saline (PBS) twice and surviving cell numbers were then determined indirectly by 3-(4,5-dimethylthiazol-yl)-2,5-diphenyltetrazolium bromide (MTT, Sigma Chemical Co., St. Louis, Mo., USA) dye reduction.

[3] = test system: Escherichia coli (ATCC 25922), Pseudomonas aeruginosa (ATCC 27853), Staphylococcus aureus (ATCC 25923), and Bacillus subtillis (ATCC 6633); assay: Antimicrobial activity of reuterin, glutaraldehyde as control; format: cell-based
From the text: Antimicrobial activity of reuterin was studied (J Biomed Mater Res 2002;61:360-369) and disclosed in the present invention, wherein glutaraldehyde is used as a control. The microorganisms tested in the study are Escherichia coli (ATCC 25922), Pseudomonas aeruginosa (ATCC 27853), Staphylococcus aureus (ATCC 25923), and Bacillus subtillis (ATCC 6633).

## O=CCCO [reuterin, β-hydroxypropinoaldehyde]
[1]
  MTT50 concentration (concentration reducing optical density reading to half that of the control): about 20 ppm
[2]; 15 ppm
  state of cultured cells in photomicrographs: confluent
[3]; all four tested microorganisms
  concentration that can prevent the growth of the tested microorganisms: 20 to 35 ppm
  concentration that resulted in the death of the tested microorganisms: 40 to 50 ppm
[3]; gram-positive and gram-negative bacteria
  sensitivity of tested microorganisms: sensitive

## O=CCCCC=O [glutaraldehyde, reference compound]
[1]
  MTT50 concentration (concentration reducing optical density reading to half that of the control): approximately 4 ppm
[2]; 0.05 ppm
  state of cultured cells in photomicrographs: confluent
[2]; 5 ppm
  state of cultured cells in photomicrographs: all the cells cultured were found dead
[3]; growth-preventing and lethal concentrations
  values for glutaraldehyde relative to those for reuterin: 2˜3 times
